Measurements from PubChem BioAssay AID2060614 (Molecular Pharmacology Branch, DTP, NCI, 2025).
Values joined by “and” are separate entries in the source; they are usually repeats but may differ in a detail not shown here. Equal values may be shown once.

Tested on: 598228-144-R-J1-PDC complex spheroids, viability
Assay: Anticancer human tumor 598228-144-R-J1-PDC patient-derived serous endometrial adenocarcinoma cell line growth inhibition [CLK]
Details: for viability, T/C: stronger effect = lower value
Method in brief: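 Multi-cell-type spheroids combined patient-derived tumor cells with HUVEC endothelial cells and human mesenchymal stem cells. Paired agents were dosed in half-log steps down from about clinical Cmax, or from 10 microM where Cmax was unknown.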

[1] = curve of first compound, second compound 0.0316 µM
[2] = curve of first compound, second compound 0.1 µM
[3] = curve of first compound, second compound 0.316 µM
[4] = curve of first compound, second compound 1 µM
[5] = curve of first compound, second compound 3.16 µM
[6] = curve of first compound, second compound 10 µM
[7] = second compound 0.0316 µM, first compound 0.0316 µM
[8] = second compound 0.0316 µM, first compound 0.1 µM
[9] = second compound 0.0316 µM, first compound 0.316 µM
[10] = second compound 0.0316 µM, first compound 1 µM
[11] = second compound 0.1 µM, first compound 0.0316 µM
[12] = second compound 0.1 µM, first compound 0.1 µM
[13] = second compound 0.1 µM, first compound 0.316 µM
[14] = second compound 0.1 µM, first compound 1 µM
[15] = second compound 0.316 µM, first compound 0.0316 µM
[16] = second compound 0.316 µM, first compound 0.1 µM
[17] = second compound 0.316 µM, first compound 0.316 µM
[18] = second compound 0.316 µM, first compound 1 µM
[19] = second compound 1 µM, first compound 0.0316 µM
[20] = second compound 1 µM, first compound 0.1 µM
[21] = second compound 1 µM, first compound 0.316 µM
[22] = second compound 1 µM, first compound 1 µM
[23] = second compound 3.16 µM, first compound 0.0316 µM
[24] = second compound 3.16 µM, first compound 0.1 µM
[25] = second compound 3.16 µM, first compound 0.316 µM
[26] = second compound 3.16 µM, first compound 1 µM
[27] = second compound 10 µM, first compound 0.0316 µM
[28] = second compound 10 µM, first compound 0.1 µM
[29] = second compound 10 µM, first compound 0.316 µM
[30] = second compound 10 µM, first compound 1 µM
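Also: spheroids exposed to compounds for seven days before readout.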
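For viability, T/C in this document: 100% = DMSO vehicle control wells.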

In the case of `C#Cc1c(F)ccc2cc(O)cc(-c3ncc4c(N5CC6CCC(C5)N6)nc(OCC56CCCN5CC(F)C6)nc4c3F)c12` (stereo not given) + CN1CCN(c2cc(C(=O)Nc3cc4cc(-c5cnn(C)c5)ccc4cn3)ccn2)CC1, the IC50 [1] is reported as greater than 10000 nM, the IC50 [2] is reported as greater than 10000 nM and the IC50 [3] is reported as less than 31.6 nM. The IC50 [4] was less than 31.6 nM, the IC50 [5] was less than 31.6 nM and the IC50 [6] was less than 31.6 nM. For the same molecule, the viability, T/C [7] was 132%, the viability, T/C [8] was 124% and the viability, T/C [9] was 125%. The viability, T/C [10] was 135%, the viability, T/C (second compound 0.0316 µM, first compound 3.16 µM) was 117% and the viability, T/C (second compound 0.0316 µM, first compound 10 µM) was 124%. For the same molecule, the viability, T/C [11] was 133%, the viability, T/C [12] was 157% and the viability, T/C [13] was 136%. It also gave a viability, T/C [14] of 124%, a viability, T/C (second compound 0.1 µM, first compound 3.16 µM) of 125% and a viability, T/C (second compound 0.1 µM, first compound 10 µM) of 121%. The viability, T/C [15] was 17.1%, the viability, T/C [16] was 13.9% and the viability, T/C [17] was 16%. The viability, T/C [18] was 19.5%, the viability, T/C (second compound 0.316 µM, first compound 3.16 µM) was 17.8% and the viability, T/C (second compound 0.316 µM, first compound 10 µM) was 16.2%. It also gave a viability, T/C [19] of 1.68%, a viability, T/C [20] of 1.68% and a viability, T/C [21] of 2.02%. The viability, T/C [22] was 1.73%, the viability, T/C (second compound 1 µM, first compound 3.16 µM) was 1.51% and the viability, T/C (second compound 1 µM, first compound 10 µM) was 1.49%. The viability, T/C [23] was 1.98%, the viability, T/C [24] was 5.99% and the viability, T/C [25] was 2.15%. For the same molecule, the viability, T/C [26] was 1.76%, the viability, T/C (second compound 3.16 µM, first compound 3.16 µM) was 1.24% and the viability, T/C (second compound 3.16 µM, first compound 10 µM) was 3.29%. It also gave a viability, T/C [27] of 1.05%, a viability, T/C [28] of 2.3% and a viability, T/C [29] of 0.88%. It also gave a viability, T/C [30] of 0.94%, a viability, T/C (second compound 10 µM, first compound 3.16 µM) of 1% and a viability, T/C (second compound 10 µM, first compound 10 µM) of 0.39%.
`CC(C)CC(NC(=O)C(Cc1ccccc1)NC(=O)c1cnccn1)B(O)O` (stereo not given) + CNC(=O)c1ccc(Nc2nc(OC3CCCC3)c3c(-c4ccc5nc(C)oc5c4)c[nH]c3n2)c(OC)c1 showed an IC50 [1] of 4.68 nM, an IC50 [2] of 5.05 nM and an IC50 [3] of 3.47 nM. It also gave an IC50 [4] of 2.18 nM, an IC50 [5] of 2.08 nM and an IC50 [6] of 1.96 nM. For the same molecule, the viability, T/C (second compound 0.0316 µM, first compound 0.000949 µM) was 111%, the viability, T/C (second compound 0.0316 µM, first compound 0.003 µM) was 79.8% and the viability, T/C (second compound 0.0316 µM, first compound 0.00949 µM) was 2.81%. It also gave a viability, T/C (second compound 0.0316 µM, first compound 0.03 µM) of 0.55%, a viability, T/C (second compound 0.0316 µM, first compound 0.0949 µM) of 0.7% and a viability, T/C (second compound 0.0316 µM, first compound 0.3 µM) of 0.37%. It also gave a viability, T/C (second compound 0.1 µM, first compound 0.000949 µM) of 127%, a viability, T/C (second compound 0.1 µM, first compound 0.003 µM) of 88.8% and a viability, T/C (second compound 0.1 µM, first compound 0.00949 µM) of 3.14%. It also gave a viability, T/C (second compound 0.1 µM, first compound 0.03 µM) of 0.58%, a viability, T/C (second compound 0.1 µM, first compound 0.0949 µM) of 0.44% and a viability, T/C (second compound 0.1 µM, first compound 0.3 µM) of 0.49%. It also gave a viability, T/C (second compound 0.316 µM, first compound 0.000949 µM) of 116%, a viability, T/C (second compound 0.316 µM, first compound 0.003 µM) of 56.7% and a viability, T/C (second compound 0.316 µM, first compound 0.00949 µM) of 3.51%. For the same molecule, the viability, T/C (second compound 0.316 µM, first compound 0.03 µM) was 0.83%, the viability, T/C (second compound 0.316 µM, first compound 0.0949 µM) was 0.51% and the viability, T/C (second compound 0.316 µM, first compound 0.3 µM) was 0.91%. The viability, T/C (second compound 1 µM, first compound 0.000949 µM) was 128%, the viability, T/C (second compound 1 µM, first compound 0.003 µM) was 19.7% and the viability, T/C (second compound 1 µM, first compound 0.00949 µM) was 1.31%. It also gave a viability, T/C (second compound 1 µM, first compound 0.03 µM) of 0.56%, a viability, T/C (second compound 1 µM, first compound 0.0949 µM) of 0.77% and a viability, T/C (second compound 1 µM, first compound 0.3 µM) of 1.17%. It also gave a viability, T/C (second compound 3.16 µM, first compound 0.000949 µM) of 128%, a viability, T/C (second compound 3.16 µM, first compound 0.003 µM) of 13.9% and a viability, T/C (second compound 3.16 µM, first compound 0.00949 µM) of 0.9%. It also gave a viability, T/C (second compound 3.16 µM, first compound 0.03 µM) of 0.44%, a viability, T/C (second compound 3.16 µM, first compound 0.0949 µM) of 2.9% and a viability, T/C (second compound 3.16 µM, first compound 0.3 µM) of 1.57%. The viability, T/C (second compound 10 µM, first compound 0.000949 µM) was 115%, the viability, T/C (second compound 10 µM, first compound 0.003 µM) was 11.9% and the viability, T/C (second compound 10 µM, first compound 0.00949 µM) was 2.24%. The viability, T/C (second compound 10 µM, first compound 0.03 µM) was 1.62%, the viability, T/C (second compound 10 µM, first compound 0.0949 µM) was 0.46% and the viability, T/C (second compound 10 µM, first compound 0.3 µM) was 2.11%.
In the case of `O=c1[nH]cc(F)c(=O)[nH]1`, the viability, T/C (compound 0.0316 µM) is reported as 106% and 89.1%, the viability, T/C (compound 0.1 µM) is reported as 94.6% and 96.1% and the viability, T/C (compound 0.316 µM) is reported as 101% and 88.6%. For the same molecule, the viability, T/C (compound 1 µM) was 97.6% and 99.6%, the viability, T/C (compound 3.16 µM) was 99.3% and 88.9% and the viability, T/C (compound 10 µM) was 74.2% and 77.3%. The IC50 (curve of compound) was greater than 10000 nM.
In the case of `C=CC(=O)Nc1cc(Nc2nccc(-c3cn(C)c4ccccc34)n2)c(OC)cc1N(C)CCN(C)C`, the viability, T/C (compound 0.000949 µM) is reported as 106% and 86.2%, the viability, T/C (compound 0.003 µM) is reported as 95.3% and 97.7% and the viability, T/C (compound 0.00949 µM) is reported as 108% and 95.7%. For the same molecule, the viability, T/C (compound 0.03 µM) was 93.7% and 93.5%, the viability, T/C (compound 0.0949 µM) was 99.3% and 92.6% and the viability, T/C (compound 0.3 µM) was 92.1% and 94.7%. For the same molecule, the IC50 (curve of compound) was greater than 300 nM.
`CCN1CCN(Cc2ccc(Nc3ncc(F)c(-c4cc(F)c5nc(C)n(C(C)C)c5c4)n3)nc2)CC1` + CN1CCN(c2cc(C(=O)Nc3cc4cc(-c5cnn(C)c5)ccc4cn3)ccn2)CC1 showed an IC50 [1] greater than 1000 nM, an IC50 [2] greater than 1000 nM and an IC50 [3] of less than 3.16 nM. For the same molecule, the IC50 [4] was less than 3.16 nM, the IC50 [5] was less than 3.16 nM and the IC50 [6] was less than 3.16 nM. For the same molecule, the viability, T/C (second compound 0.0316 µM, first compound 0.00316 µM) was 126%, the viability, T/C (second compound 0.0316 µM, first compound 0.01 µM) was 113% and the viability, T/C [7] was 119%. It also gave a viability, T/C [8] of 112%, a viability, T/C [9] of 116% and a viability, T/C [10] of 103%. For the same molecule, the viability, T/C (second compound 0.1 µM, first compound 0.00316 µM) was 125%, the viability, T/C (second compound 0.1 µM, first compound 0.01 µM) was 122% and the viability, T/C [11] was 115%. For the same molecule, the viability, T/C [12] was 115%, the viability, T/C [13] was 123% and the viability, T/C [14] was 107%. The viability, T/C (second compound 0.316 µM, first compound 0.00316 µM) was 17.8%, the viability, T/C (second compound 0.316 µM, first compound 0.01 µM) was 17.6% and the viability, T/C [15] was 15.1%. For the same molecule, the viability, T/C [16] was 19.9%, the viability, T/C [17] was 20.7% and the viability, T/C [18] was 24.4%. The viability, T/C (second compound 1 µM, first compound 0.00316 µM) was 1.42%, the viability, T/C (second compound 1 µM, first compound 0.01 µM) was 5.67% and the viability, T/C [19] was 1.8%. It also gave a viability, T/C [20] of 1.54%, a viability, T/C [21] of 1.56% and a viability, T/C [22] of 6.64%. It also gave a viability, T/C (second compound 3.16 µM, first compound 0.00316 µM) of 1.54%, a viability, T/C (second compound 3.16 µM, first compound 0.01 µM) of 3.86% and a viability, T/C [23] of 2.86%. For the same molecule, the viability, T/C [24] was 1.78%, the viability, T/C [25] was 2.22% and the viability, T/C [26] was 5.76%. For the same molecule, the viability, T/C (second compound 10 µM, first compound 0.00316 µM) was 1%, the viability, T/C (second compound 10 µM, first compound 0.01 µM) was 3.61% and the viability, T/C [27] was 0.93%. The viability, T/C [28] was 1.25%, the viability, T/C [29] was 3.23% and the viability, T/C [30] was 3.64%.
